This passage reports mortality and mice that survive results from patent publication US4913908A, “Preparation of submicroscopic particles, particles thus obtained and pharmaceutical compositions containing them” (N. V. Sopar S.A., priority 1981, dated 1990).

Data set [1] can be described thus: Toxicity: survival/mortality of mice after intravenous administration or injections. Format: in vivo. Particulars: mouse, in vivo; intravenous, three successive doses of 10 mg/kg/day; read-out: mice that do not survive for 15 days.
Method: Several toxicity measurements are carried out with suspensions of particles obtained by this process.
For the next data set, the system named is mice. The data set is described as above. Particulars: three injections of 12.5 mg/kg/day; result in words. Format: in vivo.

Turning to `COc1cccc2c1C(=O)c1c(O)c3c(c(O)c1C2=O)C[C@@](O)(C(=O)CO)C[C@@H]3O[C@H]1C[C@H](N)[C@H](O)[C@H](C)O1` [doxorubicin], the mortality at 360 h in data set [1] came to 27.5%. In addition, the mice that survive result in the data set on mice is given as “none of the mice survives”.
